We go through four molecules from patent US20120009203A1, “Depletion of cancer stem cells” (priority 2010, published 2012).

The test system of experiment [1] is OSCSCs. The experiment is described as follows: Cell death of OSCSCs by propidium iodide staining. In kind it is cell-based, human. Conditions: UC2 (OSCSCs, stem-like oral tumors); FIG. 25.
For experiment [2], the system named is OSCSCs. The experiment is described as follows: Cell death of OSCSCs by propidium iodide staining. Particulars: overnight. Format: cell-based, human. The procedure: (§1) OSCSCs and OSCCs were treated with HEMA (1:600) and the chemotherapeutic drug cisplatinum at 10 μg/ml, 40 μg/ml and 80 μg/ml. After an overnight incubation the levels of cell death in each tumor type was determined using propidium iodide staining.
(§2) OSCSCs and OSCCs were irradiated at 2 Gy, 10 Gy and 20 Gy and left untreated or treated with chemotherapeutic drug cisplatinum at 40 μg/ml. After an overnight incubation the levels of cell death in each tumor type was determined using propidium iodide staining.
(§3) OSCSC and OSCCs were treated with Paclitaxel at 10 μg/ml, 40 μg/ml and 80 μg/ml in the presence and absence of NAC (20 mM) and after an overnight incubation the levels of cell death were determined using propidium iodide staining.

Experiment [3] concerns OSCCs. The experiment is described as follows: Cell death of OSCCs by propidium iodide staining. Format: cell-based, human. Conditions: for levels of cell death (propidium iodide staining): overnight; for Dose dependent effect on oral tumors: UC-1 (OSCCs, differentiated oral tumor), FIG. 25. The procedure:
as §1, §2, §3

Experiment [4] relates to undifferentiated MSCs. Put plainly: Cell death of MSCs versus osteoblasts, flow cytometry of PI stained cells. Format: cell-based, human. Conditions: undifferentiated MSCs compared to differentiated osteoblasts; different concentrations of HEMA; overnight; FIG. 8F. Here is the method:
FIG. 8. […] After 2 days of co-cultures, Alkaline Phosphatase staining was performed. […] The ALP stain densities for each well were determined using photoshop software (B). […] After 2 days of co-cultures Alkaline Phosphatase staining was performed. […] The ALP stain densities for each well were determined using photoshop software (D). Stem cells and Osteoblasts were cultured with and without untreated PBMCs as described above and after two days of incubation the supernatants were removed and subjected to specific ELISA for VEGF (E). Undifferentiated MSCs and those differentiated to osteoblasts were cultured in the absence and presence of different concentrations of HEMA as indicated in the figure and the levels of cell death were determined by flow cytometric analysis of PI stained MSCs and osteoblasts after an overnight incubation (F). […] After an overnight incubation, the cells were washed and B7H1 surface expression was determined on MSC gated populations. Isotype control antibodies were used as controls (I). MSCs were left untreated or treated with IFN-γ (500 u/ml). After an overnight incubation, MSCs were washed and the B7H1 surface expression was determined on MSC.
Moreover, when MSCs were cultured with NK cells alone or NK cells with monocytes significant induction of B7H1 surface expression could be observed in surviving MSCs (FIG. 8I). […]

Experiment [5] concerns pancreatic cells (BXPC3). The experiment is described as follows: Cell death of BXPC3 pancreatic cells. Format: cell-based. Particulars: FIG. 26.
The subject of experiment [6] is lung (A549) tumors. Put plainly: Cell death of A549 lung tumors. Format: cell-based. Conditions: A549 pre-treated 5 days with supernatants from anergized NK cells (IL-2+anti-CD16 mAb), then Cisplatin overnight; FIG. 32. Here is the method:
NK treatments were carried out for 24 hours before the supernatants were removed and used to treat A549 lung tumors for 5 days. All the NK supernatant treated lung tumors were then washed and treated with different concentrations of Cisplatin as shown in the figure and incubated overnight before they were stained with propidium iodide to determine cell death in each sample.

Setting [7] is: OSCSCs, HEMA 1:600, cisplatinum 10, 40 and 80 μg/ml, FIG. 15.
Setting [8] is: OSCCs, HEMA 1:600, cisplatinum 10, 40 and 80 μg/ml, FIG. 15.

“Also recorded” adds a separate entry of the source.

Turning to `CC(=O)O[C@H]1C(=O)[C@@]2(C)[C@H]([C@H](OC(=O)c3ccccc3)[C@]3(O)C[C@H](OC(=O)[C@H](O)[C@@H](NC(=O)c4ccccc4)c4ccccc4)C(C)=C1C3(C)C)[C@]1(OC(C)=O)CO[C@@H]1C[C@@H]2O` [Paclitaxel, paclitaxel], the “Dose dependent effect on oral tumors” value in experiment [1] and in experiment [3] was “affects both cell types similarly” in each case. Further, the “levels of cell death (propidium iodide staining)” value in experiment [2] (OSCSCs (cancer stem cells), Paclitaxel 10, 40 and 80 μg/ml with and without NAC 20 mM, FIG. 17) is reported as “Lysis”; in experiment [2] (OSCSCs (cancer stem cells), Paclitaxel 10, 40 and 80 μg/ml with and without NAC 20 mM, FIG. 17, listed as paclitaxel), “lysed both cell types”; in experiment [3] (OSCCs, Paclitaxel 10, 40 and 80 μg/ml with and without NAC 20 mM, FIG. 17), “lysed both cell types”.

For `C=C(C)C(=O)OCCO` [HEMA], the figures for the “levels of cell death (propidium iodide staining)” value in experiment [2] (setting [7]) and in experiment [3] (setting [8]) were “significantly more resistant; also recorded: Resistance” and “lysed OSCCs significantly”, respectively. Also, the “levels of cell death (PI staining, flow cytometry)” value in experiment [4] was “induced significant cell death”.

Turning to `CC(=O)N[C@@H](CS)C(=O)O` [NAC, N-acetylcysteine], the “effect of NAC on cisplatin mediated killing of pancreatic cells” value in experiment [5] (in the presence of cisplatin) is listed as “inhibits cisplatin mediated killing”.

Turning to `N.N.[Cl][Pt][Cl]` [Cisplatin, cisplatin], the “cell death by Cisplatin (propidium iodide)” value in experiment [6] was “highest induction of cell death by Cisplatin”. The “Dose dependent effect on oral tumors” value in experiment [1] is on record as “does not kill OSCSCs”; in experiment [3], “increased effect on differentiated OSCCs”. Moreover, the “cisplatin mediated killing of pancreatic cells” value in experiment [5] was “Dose dependent increase”. Also, the “levels of cell death (propidium iodide staining)” value in experiment [2] (OSCSCs irradiated at 2, 10, 20 Gy, cisplatinum 40 μg/ml, FIG. 16) was “significantly more resistant; also recorded: Resistance”; in experiment [2] (setting [7]), “significantly more resistant; also recorded: Resistance”; in experiment [3] (OSCCs irradiated at 2, 10, 20 Gy, cisplatinum 40 μg/ml, FIG. 16), “lysed OSCCs significantly”; in experiment [3] (setting [8]) it was “lysed OSCCs significantly”.
